The values that follow come from ChEMBL document CHEMBL5729279, “Cycloalkyl-diamines for the treatment of inflammation” (2022).

For this test, the target named is Sigma non-opioid intracellular receptor 1 (Homo sapiens, UniProt Q99720). Description: Pharmacological Activity: Ki determinations were generously provided by the National Institute of Mental Health's Psychoactive Drug Screening Program (PDSP).
Chain of Sigma non-opioid intracellular receptor 1 (Q99720 whole entry): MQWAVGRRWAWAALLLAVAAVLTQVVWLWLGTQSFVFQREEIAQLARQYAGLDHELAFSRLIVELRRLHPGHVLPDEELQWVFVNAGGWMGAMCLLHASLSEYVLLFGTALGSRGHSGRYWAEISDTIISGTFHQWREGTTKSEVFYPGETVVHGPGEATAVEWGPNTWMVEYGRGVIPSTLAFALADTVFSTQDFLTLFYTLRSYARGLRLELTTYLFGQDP

With `CN[C@@]1(c2ccccc2Cl)CCCCC1NCCCN1CCCC1` (stereo partly specified), the affinity corresponds to a Ki of 37.2 nM.
